Data from patent US10526323B2, “Indazole and azaindazole substituted compounds as mGluR4 allosteric potentiators, compositions, and methods of treating neurological dysfunction” (Vanderbilt University, priority 2015, dated 2020).

Target: mGluR4 (UniProt Q14833)
Assay: mGluR4 potentiation assay: increase in response to an EC20 concentration of agonist (species not given)
Format: cell-based
Conditions: EC50 for potentiation of mGluR4; table does not state human or rat
Method: The disclosed compounds and compositions can be evaluated for their ability to act as a potentiator of metabotropic glutamate receptor activity, in particular mGluR4 activity, by any suitable known methodology known in the art. For example, Chinese Hamster Ovary (CHO) cells transfected with human mGluR4 or […] co-transfected with rat mGluR4 and the G-protein regulated Inwardly Rectifying Potassium channel (GIRK) were plated in clear bottom assay plates for assay in a Hamamatsu FDSS Fluorometric Plate Reader. The cells were loaded with either a Ca2+-sensitive fluorescent dye or the thallium responsive dye and the plates were washed and placed into a suitable kinetic plate reader. For human mGluR4 assays, a fluorescence baseline was established for 3-5 seconds, the disclosed compounds were then added to the cells, and the response in cells was measured. Approximately two and a half minutes later, a concentration of mGluR4 orthosteric agonist (e.g. glutamate or L-AP4) eliciting approximately 20% (EC20) of the maximal agonist response was added to the cells, and the response was measured. Two minutes later, a concentration of mGluR4 agonist (e.g. glutamate or L-AP4) eliciting 80% (EC80) of the maximal agonist response was added to the cells, and the response was measured. For rat mGluR4/GIRK experiments, a baseline was established for approximately five seconds, disclosed compounds were added, and either an EC20 or EC80 concentration of agonist was added approximately two and one half minutes later. Potentiation of the agonist response of mGluR4 by the disclosed compounds was observed as an increase in response to the EC20 concentration of agonist in the presence of compound compared to the response to agonist in the absence of compound. Similarly, antagonism of the agonist response of mGluR4 by the disclosed compounds was observed as a decrease in response to the EC80 concentration of agonist in the presence of compound compared to the response to agonist in the absence of compound.
The above described assay operated in two modes. In the first mode, a range of concentrations of the disclosed compounds are added to cells, followed by a single fixed concentration of agonist. If the compound acts as a potentiator, an EC50 value for potentiation and a maximum extent of potentiation by the compound at this concentration of agonist is determined by non-linear curve fitting. If the compound acts as a noncompetitive antagonist, an IC50 value is determined by non-linear curve fitting. In the second mode, several fixed concentrations of the disclosed compounds are added to various wells on a plate, followed by a range in concentrations of agonist for each concentration of disclosed compound. The EC50 values for the agonist at each concentration of compound are determined by non-linear curve fitting. A decrease in the EC50 value of the agonist with increasing concentrations of the sample compound (a leftward shift of the agonist concentration-response curve) is an indication of the degree of mGluR4 potentiation at a given concentration of the sample compound. A decrease in the maximal response of the agonist with increasing concentrations of the sample compounds, with or without a rightward shift in agonist potency, is an indication of the degree of noncompetitive antagonism at mGluR4. The second mode also indicates whether the sample compounds also affect the maximum response to mGluR4 to agonists.
These compounds are positive allosteric modulators (potentiators) of human and rat mGluR4 and were selective for mGluR4 compared to the other seven subtypes of metabotropic glutamate receptors.

Row | Compound | EC50 [nM]
1 | Cc1nn(C2CCNCC2)c2ccc(Nc3n[nH]c4cccnc34)cc12 [Example 90, N-(3-methyl-1-(piperidin-4-yl)-1H-indazol-5-yl)-1H-pyrazolo[4,3-b]pyridin-3-amine] | > 10000
2 | Cc1c2cc(Nc3n[nH]c4cccnc34)ccc2nn1C(C)C [Example 59, N-(2-isopropyl-3-methyl-2H-indazol-5-yl)-1H-pyrazolo[4,3-b]pyridin-3-amine] | > 10000
3 | CCCn1nc(C)c2cc(Nc3n[nH]c4nccnc34)ccc21 [Example 131, N-(3-methyl-1-propyl-1H-indazol-5-yl)-1H-pyrazolo[3,4-b]pyrazin-3-amine] | 107
4 | COc1ccc2[nH]nc(Nc3ccc4c(C5CC5)nn(C)c4c3)c2c1 [Example 47, N-(3-cyclopropyl-1-methyl-1H-indazol-6-yl)-5-methoxy-1H-indazol-3-amine] | > 10000
5 | Cc1nnc(Cn2nc(C)c3cc(Nc4n[nH]c5cccnc45)ccc32)o1 [Example 129, N-(3-methyl-1-((5-methyl-1,3,4-oxadiazol-2-yl)methyl)-1H-indazol-5-yl)-1H-pyrazolo[4,3-b]pyridin-3-amine] | 1300
6 | c1cnc2c(Nc3ccc4nn(CC5CCC5)cc4c3)n[nH]c2c1 [Example 89, N-(2-(cyclobutylmethyl)-2H-indazol-5-yl)-1H-pyrazolo[4,3-b]pyridin-3-amine] | > 10000
7 | Cc1nn(CC2CCC2)c2ccc(Nc3n[nH]c4ncccc34)cc12 [Example 75, N-(1-(cyclobutylmethyl)-3-methyl-1H-indazol-5-yl)-1H-pyrazolo[3,4-b]pyridin-3-amine] | 187
8 | Cn1nc(N2CC(C)(C3CC3)CC2=O)c2ccc(Nc3n[nH]c4ccccc34)cc21 (stereo not shown) [Example 41, 1-(6-((1H-indazol-3-yl)amino)-1-methyl-1H-indazol-3-yl)-4-cyclopropyl-4-methylpyrrolidin-2-one] | 1420
9 | Cc1nn(C(C)C)c2cc(Nc3n[nH]c4c3CCCC4)ccc12 [Example 20, 1-isopropyl-3-methyl-N-(4,5,6,7-tetrahydro-1H-indazol-3-yl)-1H-indazol-6-amine] | > 10000
10 | COc1cc(Nc2n[nH]c3nccnc23)cc2c1cnn2C [Example 53, N-(4-methoxy-1-methyl-1H-indazol-6-yl)-1H-pyrazolo[3,4-b]pyrazin-3-amine] | 247
11 | Cc1nn(C(=O)C(F)(F)F)c2ccc(Nc3n[nH]c4nccnc34)cc12 [Example 138, 1-(5-((1H-pyrazolo[3,4-b]pyrazin-3-yl)amino)-3-methyl-1H-indazol-1-yl)-2,2,2-trifluoroethan-1-one] | 3400
12 | Cc1nn(Cc2ccc3ccccc3n2)c2ccc(Nc3n[nH]c4cccnc34)cc12 [Example 125, N-(3-methyl-1-(quinolin-2-ylmethyl)-1H-indazol-5-yl)-1H-pyrazolo[4,3-b]pyridin-3-amine] | 1530
13 | Cc1nn(C)c2ccc(Nc3n[nH]c4nccnc34)cc12 [Example 99, N-(1,3-dimethyl-1H-indazol-5-yl)-1H-pyrazolo[3,4-b]pyrazin-3-amine] | 757
14 | Cc1nn(C(C)C)c2cc(Nc3n[nH]c4nccnc34)ccc12 [Example 18, N-(1-isopropyl-3-methyl-1H-indazol-6-yl)-1H-pyrazolo[3,4-b]pyrazin-3-amine] | > 10000
15 | [2H]C([2H])([2H])n1ncc2cc(Nc3n[nH]c4cccnc34)ccc21 [Example 96, N-(1-(methyl-d3)-1H-indazol-5-yl)-1H-pyrazolo[4,3-b]pyridin-3-amine] | 863
16 | Cc1ccc(-n2nc(C)c3cc(Nc4n[nH]c5cccnc45)ccc32)cc1 [Example 93, N-(3-methyl-1-(p-tolyl)-1H-indazol-5-yl)-1H-pyrazolo[4,3-b]pyridin-3-amine] | > 10000
17 | Cc1cc(Cn2nc(C)c3cc(Nc4n[nH]c5ccccc45)ccc32)no1 [Example 78, N-(3-methyl-1-((5-methylisoxazol-3-yl)methyl)-1H-indazol-5-yl)-1H-indazol-3-amine] | 129
18 | Cc1cc(Cn2ncc3c(Nc4n[nH]c5cccnc45)cccc32)no1 [Example 32, N-(1-((5-methylisoxazol-3-yl)methyl)-1H-indazol-4-yl)-1H-pyrazolo[4,3-b]pyridin-3-amine] | 571

Next, values leading:

Row | EC50 [nM] | Compound
19 | 1560 | O=C(O)Cn1nc(Cl)c2cc(Nc3n[nH]c4cccnc34)ccc21 [Example 278, 2-(5-((1H-pyrazolo[4,3-b]pyridin-3-yl)amino)-3-chloro-1H-indazol-1-yl)acetic acid]
20 | 629 | Cn1nc(OC2COC2)c2ccc(Nc3n[nH]c4cccnc34)cc21 [Example 216, N-[1-methyl-3-(oxetan-3-yloxy)indazol-6-yl]-1H-pyrazolo[4,3-b]pyridin-3-amine]
21 | 3530 | Cn1ncc2ncc(Nc3n[nH]c4nccnc34)cc21 [Example 148, N-(1-methyl-1H-pyrazolo[4,3-b]pyridin-6-yl)-1H-pyrazolo[3,4-b]pyrazin-3-amine]
22 | 170 | Cc1nn(CCC(C)C)c2ncc(Nc3n[nH]c4cccnc34)cc12 [Example 154, 1-isopentyl-3-methyl-N-(1H-pyrazolo[4,3-b]pyridin-3-yl)pyrazolo[3,4-b]pyridin-5-amine]
23 | 1580 | Cn1nc(C(=O)N2CCOCC2)c2ccc(Nc3n[nH]c4cccnc34)cc21 [Example 167, [1-methyl-6-(1H-pyrazolo[4,3-b]pyridin-3-ylamino)indazol-3-yl]-morpholino-methanone]
24 | 356 | [2H]C([2H])(C)Oc1nn(C)c2cc(Nc3n[nH]c4cccnc34)ccc12 [Example 241, N-(3-(ethoxy-1,1-d2)-1-methyl-1H-indazol-6-yl)-1H-pyrazolo[4,3-b]pyridin-3-amine]
25 | > 30000 | Cc1nn(C(C)C)c2ncc(Nc3n[nH]c4cccnc34)cc12 [Example 270, N-(1-isopropyl-3-methyl-1H-pyrazolo[3,4-b]pyridin-5-yl)-1H-pyrazolo[4,3-b]pyridin-3-amine]
26 | 310 | Cc1nn(CC(C)(F)F)c2ccc(Nc3n[nH]c4cccnc34)cc12 [Example 139, N-(1-(2,2-difluoropropyl)-3-methyl-1H-indazol-5-yl)-1H-pyrazolo[4,3-b]pyridin-3-amine]
27 | 1110 | Cn1nc(C(=O)N2CCC(F)CC2)c2ccc(Nc3n[nH]c4cccnc34)cc21 [Example 164, (4-fluoro-1-piperidyl)-[1-methyl-6-(1H-pyrazolo[4,3-b]pyridin-3-ylamino)indazol-3-yl]methanone]
28 | 3510 | Cc1nn(CCCCN2CCCCC2)c2ccc(Nc3n[nH]c4cccnc34)cc12 [Example 283, N-(3-methyl-1-(4-(piperidin-1-yl)butyl)-1H-indazol-5-yl)-1H-pyrazolo[4,3-b]pyridin-3-amine]
29 | 83 | Cn1nc(OCc2cccnc2)c2ccc(Nc3n[nH]c4cccnc34)cc21 [Example 184, N-(1-methyl-3-(pyridin-3-ylmethoxy)-1H-indazol-6-yl)-1H-pyrazolo[4,3-b]pyridin-3-amine]
30 | 1980 | Clc1nn(CC2CCC2)c2ccc(Nc3n[nH]c4cccnc34)cc12 [Example 285, N-(3-chloro-1-(cyclobutylmethyl)-1H-indazol-5-yl)-1H-pyrazolo[4,3-b]pyridin-3-amine]
31 | 765 | Cn1nc(C(=O)N2CC[C@H](F)C2)c2ccc(Nc3n[nH]c4cccnc34)cc21 [Example 171, [(3S)-3-fluoropyrrolidin-1-yl]-[1-methyl-6-(1H-pyrazolo[4,3-b]pyridin-3-ylamino)indazol-3-yl]methanone]
32 | 65.8 | Cn1nc(OCc2ccncc2)c2ccc(Nc3n[nH]c4cccnc34)cc21 [Example 238, N-(1-methyl-3-(pyridin-4-ylmethoxy)-1H-indazol-6-yl)-1H-pyrazolo[4,3-b]pyridin-3-amine]
33 | 110 | Cc1nn(CC2CCC2)c2ncc(Nc3n[nH]c4cccnc34)cc12 [Example 156, 1-(cyclobutylmethyl)-3-methyl-N-(1H-pyrazolo[4,3-b]pyridin-3-yl)pyrazolo[3,4-b]pyridin-5-amine]
34 | 467 | Cn1nc(C#N)c2ccc(Nc3n[nH]c4cccnc34)cc21 [Example 177, 1-methyl-6-(1H-pyrazolo[4,3-b]pyridin-3-ylamino)indazole-3-carbonitrile]
